In patent US12435066B2, “Substituted tricyclic compounds” (LUPIN LIMITED, priority 2019, dated 2025) one finds IC50 data, which are given here for 23 compounds.

Experiment [1] has as its target T1, hSOS1 and hKRASG12C (Homo sapiens, UniProt Q07889).
T1 sequence (Q07889 564-1049): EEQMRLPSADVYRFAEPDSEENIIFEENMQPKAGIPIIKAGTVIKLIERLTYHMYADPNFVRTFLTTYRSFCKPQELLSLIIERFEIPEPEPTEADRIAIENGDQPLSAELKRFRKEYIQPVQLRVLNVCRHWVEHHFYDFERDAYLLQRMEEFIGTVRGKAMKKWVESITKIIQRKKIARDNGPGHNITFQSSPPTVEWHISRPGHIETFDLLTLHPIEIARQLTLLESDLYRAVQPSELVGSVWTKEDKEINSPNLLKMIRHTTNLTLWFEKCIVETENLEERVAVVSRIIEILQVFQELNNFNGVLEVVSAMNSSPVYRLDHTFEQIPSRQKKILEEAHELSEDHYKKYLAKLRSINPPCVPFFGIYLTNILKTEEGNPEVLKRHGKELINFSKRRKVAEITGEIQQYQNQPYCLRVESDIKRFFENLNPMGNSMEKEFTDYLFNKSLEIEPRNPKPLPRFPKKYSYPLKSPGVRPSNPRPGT
The experiment is described as follows: biochemical.
Protocol: Interaction assay was conducted to evaluate the ability of the compounds to disrupt the protein-protein interactions between hSOS1 and hKRASG12C. Inhibitory effect of compounds on GST-hSOS1, 564-1049aa expressed and purified in-house and HIS-hKRASG12C (R06-32DH, SignalChem) interaction was assessed using HTRF detection technology in biochemical assay. Compounds were pre-incubated with 10-50 nM working solution of hSOS1 per well of a 384 well plate (Perkin Elmer, Cat #6007290) for 10 min at 20° C. in the assay buffer containing 5 mM HEPES, pH 7.4, 150 mM NaCl, 10 mM EDTA, 1 mM DTT, 0.05% BSA fraction V and 0.0025% Igepal. Reaction was initiated by adding 100-300 nM working solution of hKRASG12C in assay buffer. Total assay volume was 15 μL. Reaction was continued for 30-60 min at 20° C. Then detection solution containing MAb Anti-GST-d2 (#61GSTDLA, Cisbio BioAssays) and MAb Anti-HIS-Tb (#61HISTLA, Cisbio BioAssays), all prepared in HTRF detection buffer (#61DB10RDF, Cisbio BioAssays) was added and further incubated for 30-60 min at 20° C. HTRF signal was recorded in PHERAStar microplate reader. Ratio of signal obtained at 665 nm and 620 nm was used to compute the percent inhibition of compound utilizing the following formula:
Positive control=hSOS1+hKRASG12C+MAb Anti-GST-d2+Mab Anti-HIS-Tb Negative control=hKRASG12C+MAb Anti-GST-d2+MAb Anti-HIS-Tb

The subject of experiment [2] is pERK in DLD1 cells. The experiment is described as follows: ERK phosphorylation assay after EGF stimulation. The class given is cell-based. Particulars: Homo sapiens, DLD-1, compound 2 h, 200 ng/ml hEGF 5 minutes, alphascreen pERK, read-out: ERK phosphorylation inhibition IC50. The procedure: Example-128: ERK Phosphorylation Assay Protocol
Compounds were tested for their ability to inhibit pERK after EGF stimulation in DLD1 cells. Cells were seeded at 0.2 million cells per well in 96 well cell binding tissue culture plate in 100 μL complete media and were allowed to settle overnight (16 to 20 h). On the following day, cells were treated with various concentrations of test compounds for 2 h followed by stimulation with 200 ng/ml hEGF (diluted in PBS) for 5 minutes. Cells were then washed once with PBS and lysed in freshly prepared lysis buffer (provided with alphascreen surefire ERK1/2 p-T202/Y204 assay kit, cat no: TGRESB10K, Perkin Elmer). Lysis was carried out in plate shaker for 10-15 mins. Lysate was transferred to […] white opti-plate (Perkin Elmer) and alphascreen for pERK was carried out as per manufacturer's instructions. Plate was read after 2 h incubation in plate shaker at […] 300 RPM, 25-28° C.

For orientation: IC50 means the concentration that gives 50% inhibition.

In the case of `Cc1nc(N[C@H](C)c2cc(N)cc(C(F)(F)F)c2)c2cc(N[C@H]3CCOC3)c3c(c2n1)CCC3` [Compound 19, N^4—((R)-1-(3-amino-5-(trifluoromethyl)phenyl)ethyl)-2-methyl-N^6—((S)-tetrahydrofuran-3-yl)-8,9-dihydro-7H-cyclopenta[h]quinazoline-4,6-diamine], the half-maximal inhibitory concentration (IC50) in experiment [1] lay within 1 to 10 nM; in experiment [2], 1 to 200 nM.
Taken in the same sequence, the figures for `COC[C@H]1CN(c2cc3c(N[C@H](C)c4cc(N)cc(C(F)(F)F)c4)nc(C)nc3c3c2CCC3)CCO1` [Compound 27, N—((R)-1-(3-amino-5-(trifluoromethyl)phenyl)ethyl)-6-((R)-2-(methoxymethyl)morpholino)-2-methyl-8,9-dihydro-7H-cyclopenta[h]quinazolin-4-amine] were 1 to 10 nM and 1 to 200 nM.
On the same counts, the results for `Cc1nc(N[C@H](C)c2cc(N)cc(C(F)(F)F)c2)c2cc(O[C@H]3CCOC3)c3c(c2n1)CC(C)(C)O3` [Compound 112, N—((R)-1-(3-amino-5-(trifluoromethyl)phenyl)ethyl)-2,8,8-trimethyl-6-(((S)-tetrahydrofuran-3-yl)oxy)-8,9-dihydrofuro[2,3-h]quinazolin-4-amine] are 11 to 20 nM and 1 to 200 nM.
In experiment [1], `Cc1nc(N[C@H](C)c2cc(N)cc(C(F)(F)F)c2)c2cc(N3C[C@@H](C)O[C@@H](C)C3)c3c(c2n1)CCC3` [Compound 17, N—((R)-1-(3-amino-5-(trifluoromethyl)phenyl)ethyl)-6-((2S,6R)-2,6-dimethylmorpholino)-2-methyl-8,9-dihydro-7H-cyclopenta[h]quinazolin-4-amine] came in with an IC50 of 11 to 20 nM.
As to `Cc1nc(N[C@H](C)c2cc(N)cc(C(F)(F)F)c2)c2cc(O[C@H]3CCOC3)c3c(c2n1)CCC3` [Compound 109, N—((R)-1-(3-amino-5-(trifluoromethyl)phenyl)ethyl)-2-methyl-6-(((S)-tetrahydrofuran-3-yl)oxy)-8,9-dihydro-7H-cyclopenta[h]quinazolin-4-amine], the half-maximal inhibitory concentration (IC50) in experiment [1] lay within 11 to 20 nM; in experiment [2] it was 201 to 500 nM.
As for `CC(=O)N1CCC(c2cc3c(N[C@H](C)c4cc(N)cc(C(F)(F)F)c4)nc(C)nc3c3c2CCCC3)CC1` [Compound 105, (R)-1-(4-(4-((1-(3-amino-5-(trifluoromethyl)phenyl)ethyl)amino)-2-methyl-7,8,9,10-tetrahydrobenzo[h]quinazolin-6-yl)piperidin-1-yl)ethan-1-one], in experiment [2], the IC50 fell in the range of 1 to 200 nM.
In the case of `Cc1nc(N[C@H](C)c2cccc(C(F)(F)C(C)(C)O)c2F)c2cc(N3CCNC(=O)C3)c3c(c2n1)CCC3` [Compound 66, (R)-4-(4-((1-(3-(1,1-difluoro-2-hydroxy-2-methylpropyl)-2-fluorophenyl)ethyl)amino)-2-methyl-8,9-dihydro-7H-cyclopenta[h]quinazolin-6-yl)piperazin-2-one], in experiment [2], the IC50 was in the range of 1 to 200 nM.
On the same count and under the same terms, the same measure for `Cc1cc(N)cc(C(C)Nc2nc(C)nc3c4c(c(N5CCOCC5)cc23)CCC4)c1` (single isomer, unassigned) [Compound 80, N-(1-(3-amino-5-methylphenyl)ethyl)-2-methyl-6-morpholino-8,9-dihydro-7H-cyclopenta[h]quinazolin-4-amine]: 201 to 500 nM.
For `Cc1nc(N[C@H](C)c2cc(N)cc(C(F)(F)F)c2)c2cc(O[C@H]3CCOC3)c3oc(C)cc3c2n1` [Compound 111], the 50% inhibitory concentration (IC50) lay within 11 to 20 nM in experiment [1] and 201 to 500 nM in experiment [2].
For the compound `Cc1nc(N[C@H](C)c2cccc(C(F)(F)CCO)c2F)c2cc(N3CC4(COC4)C3)c3c(c2n1)CCC3` [Compound 70, (R)-3,3-difluoro-3-(2-fluoro-3-(1-((2-methyl-6-(2-oxa-6-azaspiro[3.3]heptan-6-yl)-8,9-dihydro-7H-cyclopenta[h]quinazolin-4-yl)amino)ethyl)phenyl) propan-1-ol], in experiment [2], the half-maximal inhibitory concentration (IC50) is 1 to 200 nM.
As for `Cc1nc(N[C@H](C)c2cc(N)cc(C(F)(F)F)c2)c2cc(C3CCN(C)CC3)c3c(c2n1)CCC3` [Compound 101, (R)—N-(1-(3-amino-5-(trifluoromethyl)phenyl)ethyl)-2-methyl-6-(1-methylpiperidin-4-yl)-8,9-dihydro-7H-cyclopenta[h]quinazolin-4-amine], the IC50 in experiment [1] lay in the range of 1 to 10 nM; in experiment [2], 1 to 200 nM.
`CC(=O)N1CC=C(c2cc3c(N[C@H](C)c4cc(N)cc(C(F)(F)F)c4)nc(C)nc3c3c2CCC3)CC1` [Compound 90, (R)-1-(4-(4-((1-(3-amino-5-(trifluoromethyl)phenyl)ethyl)amino)-2-methyl-8,9-dihydro-7H-cyclopenta[h]quinazolin-6-yl)-3,6-dihydropyridin-1(2H)-yl)ethan-1-one]: in experiment [2], the concentration for half-maximal inhibition (IC50) lay in the range of 1 to 200 nM.
For the compound `COc1cc2c(N[C@H](C)c3cc(N)cc(C(F)(F)F)c3)nc(C)nc2c2c1CCC2` [Compound 108, (R)—N-(1-(3-amino-5-(trifluoromethyl)phenyl)ethyl)-6-methoxy-2-methyl-8,9-dihydro-7H-cyclopenta[h]quinazolin-4-amine], in experiment [1], the IC50 lay in the range of 1 to 10 nM.
Consider `Cc1nc(N[C@H](C)c2cccc(C(F)(F)C(C)(C)O)c2F)c2cc(-c3ccc(=O)n(C)c3)c3c(c2n1)N(C)C(=O)C(C)(C)O3` [Compound 122, (R)-4-((1-(3-(1,1-difluoro-2-hydroxy-2-methylpropyl)-2-fluorophenyl)ethyl)amino)-2,8,8,10-tetramethyl-6-(1-methyl-6-oxo-1,6-dihydropyridin-3-yl)-8H-[1,4]oxazino[2,3-h]quinazolin-9(10H)-one], for which, in experiment [2], the concentration for half-maximal inhibition (IC50) lay within 201 to 500 nM.
Still for that read-out and setting: then `Cc1nc(NC(C)c2cc(N)cc(C(F)F)c2)c2cc(N3CC4(COC4)C3)c3c(c2n1)CC(C)(C)O3` (racemic) [Compound 116, (R/S)—N-(1-(3-amino-5-(difluoromethyl)phenyl)ethyl)-2,8,8-trimethyl-6-(2-oxa-6-azaspiro[3.3]heptan-6-yl)-8,9-dihydrofuro[2,3-h]quinazolin-4-amine], with 1 to 200 nM; and `Cc1nc(NC(C)c2cccc(C(=O)C(F)(F)F)c2)c2cc(N3CCOCC3)c3c(c2n1)CCC3` (racemic) [Compound 120, (R/S)-2,2,2-trifluoro-1-(3-(1-((2-methyl-6-morpholino-8,9-dihydro-7H-cyclopenta[h]quinazolin-4-yl)amino)ethyl)phenyl)ethan-1-one], with 201 to 500 nM; and `Cc1nc(NC(C)c2cccc(C(F)(F)CO)c2C)c2cc(N3CC4(COC4)C3)c3c(c2n1)CCC3` (single isomer, unassigned) [Compound 41, 2,2-difluoro-2-(2-methyl-3-(1-((2-methyl-6-(2-oxa-6-azaspiro[3.3]heptan-6-yl)-8,9-dihydro-7H-cyclopenta[h]quinazolin-4-yl)amino)ethyl)phenyl)ethan-1-ol], with 1 to 200 nM.
Still for that read-out and setting: then `COC[C@H]1CN(c2cc3c(NC(C)c4cccc(C(F)(F)CO)c4C)nc(C)nc3c3c2CCC3)CCO1` (single isomer, unassigned) [Compound 42], with 1 to 200 nM; and `Cc1nc(N[C@H](C)c2cccc(C(F)(F)C(C)(C)O)c2F)c2cc(N3CC[C@](C)(O)C3)c3c(c2n1)CCC3` (single isomer, unassigned) [Compound 61b], with 201 to 500 nM.
`Cc1nc(N[C@H](C)c2cc(N)cc(C(F)(F)F)c2)c2cc(N3CCN(C)CC3)c3c(c2n1)CCC3` [Compound 46, (R)—N-(1-(3-amino-5-(trifluoromethyl)phenyl)ethyl)-2-methyl-6-(4-methylpiperazin-1-yl)-8,9-dihydro-7H-cyclopenta[h]quinazolin-4-amine]: the IC50 in experiment [1] fell in the range of 1 to 10 nM.
As for `Cc1nc(NC(C)c2cccc(C(C)(C)CO)c2)c2cc(N3CC4(COC4)C3)c3c(c2n1)CCC3` (single isomer, unassigned) [Compound 6, 2-methyl-2-(3-(1-((2-methyl-6-(2-oxa-6-azaspiro[3.3]heptan-6-yl)-8,9-dihydro-7H-cyclopenta[h]quinazolin-4-yl)amino)ethyl)phenyl)propan-1-ol], in experiment [2], the IC50 fell in the range of 201 to 500 nM.
Consider `Cc1nc(N[C@H](C)c2cccc(C(F)(F)C(C)(C)O)c2F)c2cc(N3CCOCC3=O)c3c(c2n1)CCC3` [Compound 123, (R)-4-(4-((1-(3-(1,1-difluoro-2-hydroxy-2-methylpropyl)-2-fluorophenyl)ethyl)amino)-2-methyl-8,9-dihydro-7H-cyclopenta[h]quinazolin-6-yl)morpholin-3-one], for which the half-inhibitory concentration (IC50) in experiment [2] was in the range of 201 to 500 nM.
Still for that read-out and setting: the same measure for `Cc1nc(N[C@H](C)c2cccc(C(F)(F)CO)c2F)c2cc(N3CCO[C@@H](CO)C3)c3c(c2n1)CCC3` [Compound 86, 2,2-difluoro-2-(2-fluoro-3-((R)-1-((6-((R)-2-(hydroxymethyl)morpholino)-2-methyl-8,9-dihydro-7H-cyclopenta[h]quinazolin-4-yl)amino)ethyl)phenyl)ethan-1-ol]: 1 to 200 nM.
